Drawing on patent publication US10287301B2 (Achillion Pharmaceuticals, Inc., priority 2015, dated 2019), this text covers IC50 for 24 molecules.

pIC50: −log10 of the molar value. Where a name gives a salt, the structure may show the parent alone. A value given as a limit tells only on which side of the number the result lay.

For the test, the target named is Human Factor D (Homo sapiens (Human), UniProt P00746). Description: Human Factor D Assay. Format: biochemical. To be noted: Table 3; Human Factor D 80 nM, substrate Z-L-Lys-SBzl; read-out: IC50 (Stars). An outline of the steps: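 Factor D (from human serum) 80 nM final + cpd, 5 min RT, 50 mM Tris/1M NaCl pH 7.5; add Z-L-Lys-SBzl 100 μM and DTNB 100 μM final. IC50 by nonlinear fit of rates vs [cpd].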
Human Factor D, sequence (P00746 26-253): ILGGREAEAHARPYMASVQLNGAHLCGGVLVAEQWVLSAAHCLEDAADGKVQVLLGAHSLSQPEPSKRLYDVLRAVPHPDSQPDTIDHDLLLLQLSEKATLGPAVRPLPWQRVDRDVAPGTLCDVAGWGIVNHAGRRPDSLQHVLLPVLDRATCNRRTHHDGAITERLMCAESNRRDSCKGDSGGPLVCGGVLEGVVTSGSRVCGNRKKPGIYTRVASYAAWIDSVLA
One may read the pIC50 as −log10 of the IC50, conventionally taken in molar units. With `CCc1ncc(-c2ccc3c(c2)c(C(C)=O)nn3CC(=O)N2C[C@H](F)C[C@H]2C(=O)Nc2cncc(Br)n2)cn1` [Compound 388, (2S,4R)-1-(2-(3-Acetyl-5-(2-ethylpyrimidin-5-yl)-1H-indazol-1-yl)acetyl)-N-(6-bromopyrazin-2-yl)-4-fluoropyrrolidine-2-carboxamide], the pIC50 is more than 6.00.
The figure for `CC(=O)c1nn(CC(=O)N2C[C@H](F)C[C@H]2C(=O)Nc2cncc(Br)n2)c2ccc(-c3cnc(C(C)C)nc3)cc12` [Compound 389, (2S,4R)-1-(2-(3-Acetyl-5-(2-isopropylpyrimidin-5-yl)-1H-indazol-1-yl)acetyl)-N-(6-bromopyrazin-2-yl)-4-fluoropyrrolidine-2-carboxamide] is more than 6.00; for `CNc1ncc(-c2ccc3c(c2)c(C(C)=O)nn3CC(=O)N2C[C@H](F)C[C@H]2C(=O)Nc2cccc(Br)n2)cn1` [Compound 390, (2S,4R)-1-(2-(3-Acetyl-5-(2-(methylamino)pyrimidin-5-yl)-1H-indazol-1-yl)acetyl)-N-(6-bromopyridin-2-yl)-4-fluoropyrrolidine-2-carboxamide] it is more than 6.00; for `CC(=O)c1nn(CC(=O)N2C[C@H](F)C[C@H]2C(=O)Nc2cccc(Br)n2)c2ccc(-c3cnc(CC#N)nc3)cc12` [Compound 391, (2S,4R)-1-(2-(3-Acetyl-5-(2-(cyanomethyl)pyrimidin-5-yl)-1H-indazol-1-yl)acetyl)-N-(6-bromopyridin-2-yl)-4-fluoropyrrolidine-2-carboxamide] it is more than 6.00.
The figure for `CC(=O)c1nn(CC(=O)N2[C@H](C(=O)Nc3cccc(Br)n3)C[C@@]3(CO)C[C@@H]23)c2ccc(-c3cnc(C)nc3)cc12` [Compound 392, (1R,3S,5S)-2-(2-(3-Acetyl-5-(2-Methylpyrimidin-5-yl)-1H-indazol-1-yl)acetyl)-N-(6-bromopyridin-2-yl)-5-(hydroxymethyl)-2-azabicyclo[3.1.0]hexane-3-carboxamide] is more than 6.00.
As for `CO[C@H]1[C@@H](C(=O)Nc2cccc(Br)n2)N(C(=O)Cn2nc(C(C)=O)c3cc(-c4cnc(C)nc4)ccc32)C[C@@H]1F` [Compound 393, (2S,3S,4S)-1-(2-(3-Acetyl-5-(2-methylpyrimidin-5-yl)-1H-indazol-1-yl)acetyl)-N-(6-bromopyridin-2-yl)-4-fluoro-3-methoxypyrrolidine-2-carboxamide], the pIC50 was more than 6.00.
The figure for `COc1ccc(NC(=O)[C@@H]2C[C@@H](F)CN2C(=O)Cn2nc(C(C)=O)c3cc(-c4cnc(C)nc4)ccc32)nc1Br` [Compound 394, (2S,4R)-1-(2-(3-Acetyl-5-(2-methylpyrimidin-5-yl)-1H-indazol-1-yl)acetyl)-N-(6-bromo-5-methoxypyridin-2-yl)-4-fluoropyrrolidine-2-carboxamide] is more than 6.00; for `CC(=O)c1nn(CC(=O)N2C[C@@](F)(CN)C[C@H]2C(=O)Nc2cccc(Br)n2)c2ccc(-c3cnc(C)nc3)cc12` [Compound 395, (2S,4S)-1-(2-(3-Acetyl-5-(2-methylpyrimidin-5-yl)-1H-indazol-1-yl)acetyl)-4-(aminomethyl)-N-(6-bromopyridin-2-yl)-4-fluoropyrrolidine-2-carboxamide] it is more than 6.00.
The figure for `COC(=O)c1cc(Cl)nc(NC(=O)[C@@H]2C[C@@H](F)CN2C(=O)Cn2nc(C(C)=O)c3cc(-c4cnc(C)nc4)ccc32)c1` [Compound 396, Methyl 2-((2S,4R)-1-(2-(3-Acetyl-5-(2-methylpyrimidin-5-yl)-1H-indazol-1-yl)acetyl)-4-fluoropyrrolidine-2-carboxamido)-6-chloroisonicotinate] is more than 6.00.
Turning to `CC(=O)c1nn(CC(=O)N2C[C@H](F)C[C@H]2C(=O)Nc2ccc(F)c(Br)n2)c2ccc(-c3cnc(C)nc3)cc12` [Compound 397, (2S,4R)-1-(2-(3-Acetyl-5-(2-methylpyrimidin-5-yl)-1H-indazol-1-yl)acetyl)-N-(6-bromo-5-fluoropyridin-2-yl)-4-fluoropyrrolidine-2-carboxamide], the pIC50 was more than 6.00.
The figure for `CC(=O)c1nn(CC(=O)N2C[C@H](F)C[C@H]2C(=O)Nc2cncc(Br)n2)c2ccc(-c3cnc(CO)nc3)cc12` [Compound 398, (2S,4R)-1-(2-(3-Acetyl-5-(2-(hydroxymethyl)pyrimidin-5-yl)-1H-indazol-1-yl)acetyl)-N-(6-bromopyrazin-2-yl)-4-fluoropyrrolidine-2-carboxamide] is more than 6.00; for `CC(=O)c1nn(CC(=O)N2CC(F)(CN)C[C@H]2C(=O)Nc2cccc(Br)n2)c2ccc(-c3cnc(C)nc3)cc12` (stereo partly drawn) [Compound 399, (2S)-1-(2-(3-acetyl-5-(2-methylpyrimidin-5-yl)-1H-indazol-1-yl)acetyl)-4-(aminomethyl)-N-(6-bromopyridin-2-yl)-4-fluoropyrrolidine-2-carboxamide] it is more than 6.00.
For the molecule `CC(=O)c1nn(CC(=O)N2C[C@H](F)C[C@H]2C(=O)Nc2ccn(CC(F)F)n2)c2ccc(-c3cnc(C)nc3)cc12` [Compound 401, (2S,4R)-1-(2-(3-Acetyl-5-(2-methylpyrimidin-5-yl)-1H-indazol-1-yl)acetyl)-N-(1-(2,2-difluoroethyl)-1H-pyrazol-3-yl)-4-fluoropyrrolidine-2-carboxamide], the pIC50 is more than 6.00.
`CC(=O)c1nn(CC(=O)N2C[C@H](F)C[C@H]2C(=O)Nc2ccc(C)c(Br)n2)c2ccc(-c3cnc(C)nc3)cc12` [Compound 402, (2S,4R)-1-(2-(3-Acetyl-5-(2-methylpyrimidin-5-yl)-1H-indazol-1-yl)acetyl)-N-(6-bromo-5-methylpyridin-2-yl)-4-fluoropyrrolidine-2-carboxamide]: the pIC50 was more than 6.00.
For the molecule `CC(=O)c1nn(CC(=O)N2C[C@H](F)C[C@H]2C(=O)Nc2cccc(Br)n2)c2ccc(-c3cnc(CNC(=O)OC(C)(C)C)nc3)cc12` [Compound 403, tert-butyl ((5-(3-Acetyl-1-(2-((2S,4R)-2-((6-bromopyridin-2-yl)carbamoyl)-4-fluoropyrrolidin-1-yl)-2-oxoethyl)-1H-indazol-5-yl)pyrimidin-2-yl)methyl)carbamate], the pIC50 is more than 6.00.
The figure for `CC(=O)c1nn(CC(=O)N2C[C@H](F)C[C@H]2C(=O)Nc2cccc(Br)n2)c2ccc(-c3cnc(CN)nc3)cc12` [Compound 404, (2S,4R)-1-(2-(3-Acetyl-5-(2-(aminomethyl)pyrimidin-5-yl)-1H-indazol-1-yl)acetyl)-N-(6-bromopyridin-2-yl)-4-fluoropyrrolidine-2-carboxamide hydrochloride] is more than 6.00; for `CC(=O)c1nn(CC(=O)N2C[C@H](F)C[C@H]2C(=O)Nc2nc(Br)ccc2C)c2ccc(-c3cnc(C)nc3)cc12` [Compound 405, (2S,4R)-1-(2-(3-Acetyl-5-(2-methylpyrimidin-5-yl)-1H-indazol-1-yl)acetyl)-N-(6-bromo-3-methylpyridin-2-yl)-4-fluoropyrrolidine-2-carboxamide] it is more than 6.00; for `CC(=O)NCc1ncc(-c2ccc3c(c2)c(C(C)=O)nn3CC(=O)N2C[C@H](F)C[C@H]2C(=O)Nc2cccc(Br)n2)cn1` [Compound 406, (2S,4R)-1-(2-(5-(2-(Acetamidomethyl)pyrimidin-5-yl)-3-acetyl-1H-indazol-1-yl)acetyl)-N-(6-bromopyridin-2-yl)-4-fluoropyrrolidine-2-carboxamide] it is more than 6.00.
The figure for `CC(=O)c1nn(CC(=O)N2C[C@H](F)C[C@H]2C(=O)Nc2ccc(F)cn2)c2ccc(-c3cnc(C)nc3)cc12` [Compound 407, (2S,4R)-1-(2-(3-Acetyl-5-(2-methylpyrimidin-5-yl)-1H-indazol-1-yl)acetyl)-4-fluoro-N-(5-fluoropyridin-2-yl)pyrrolidine-2-carboxamide] is more than 6.00; for `CC(=O)c1nn(CC(=O)N2C[C@H](F)C[C@H]2C(=O)Nc2ncc(F)cc2Br)c2ccc(-c3cnc(C)nc3)cc12` [Compound 408, (2S,4R)-1-(2-(3-Acetyl-5-(2-methylpyrimidin-5-yl)-1H-indazol-1-yl)acetyl)-N-(3-bromo-5-fluoropyridin-2-yl)-4-fluoropyrrolidine-2-carboxamide] it is more than 6.00.
The figure for `Cc1ncc(-c2ccc3c(c2)c([C@H](C)O)nn3CC(=O)N2[C@@H]3C[C@@H]3C[C@H]2C(=O)Nc2cccc(Br)n2)cn1` [Compound 409, (1R,3S,5R)—N-(6-Bromopyridin-2-yl)-2-(2-(3-((S)-1-hydroxyethyl)-5-(2-methylpyrimidin-5-yl)-1H-indazol-1-yl)acetyl)-2-azabicyclo[3.1.0]hexane-3-carboxamide] is more than 6.00.
Take `CC(=O)c1nn(CC(=O)N2C[C@@](F)(CF)C[C@H]2C(=O)Nc2cccc(Br)n2)c2ccc(-c3cnc(C)nc3)cc12` [Compound 415, (2S,4R)-1-(2-(3-Acetyl-5-(2-methylpyrimidin-5-yl)-1H-indazol-1-yl)acetyl)-N-(6-bromopyridin-2-yl)-4-fluoro-4-(fluoromethyl)pyrrolidine-2-carboxamide]: the pIC50 was more than 6.00.
The figure for `COC[C@@]12C[C@@H](C(=O)Nc3cccc(Br)n3)N(C(=O)Cn3nc(C(C)=O)c4cc(-c5cnc(C)nc5)ccc43)[C@@H]1C2` [Compound 416, (1R,3S,5S)-2-(2-(3-Acetyl-5-(2-methylpyrimidin-5-yl)-1H-indazol-1-yl)acetyl)-N-(6-bromopyridin-2-yl)-5-(methoxymethyl)-2-azabicyclo[3.1.0]hexane-3-carboxamide] is more than 6.00.
The figure for `COC[C@@]12C[C@@H]1N(C(=O)Cn1nc(C(C)=O)c3cc(-c4cnc(C)nc4)ccc31)[C@H](C(=O)Nc1cccc(Br)n1)C2` [Compound 417, (1S,3S,5R)-2-(2-(3-Acetyl-5-(2-methylpyrimidin-5-yl)-1H-indazol-1-yl)acetyl)-N-(6-bromopyridin-2-yl)-5-(methoxymethyl)-2-azabicyclo[3.1.0]hexane-3-carboxamide] is more than 6.00.
